The source of these data is ChEMBL document CHEMBL1128930, “4-cyanothiazolidides as very potent, stable inhibitors of dipeptidyl peptidase IV” (Bioorg Med Chem Lett, 1996).

Molecules are shown by their SMILES. Some results are limits rather than exact numbers.

Data set [1] can be described thus: Half life period in aqueous solution. Format: ADME. The following applies: for half-life: aqueous solution.
The target in data set [2] is Dipeptidyl peptidase 4 (Homo sapiens, UniProt P27487). Nature of the data set: Inhibition of human Dipeptidyl peptidase IV.
Dipeptidyl peptidase 4, sequence (P27487 whole entry): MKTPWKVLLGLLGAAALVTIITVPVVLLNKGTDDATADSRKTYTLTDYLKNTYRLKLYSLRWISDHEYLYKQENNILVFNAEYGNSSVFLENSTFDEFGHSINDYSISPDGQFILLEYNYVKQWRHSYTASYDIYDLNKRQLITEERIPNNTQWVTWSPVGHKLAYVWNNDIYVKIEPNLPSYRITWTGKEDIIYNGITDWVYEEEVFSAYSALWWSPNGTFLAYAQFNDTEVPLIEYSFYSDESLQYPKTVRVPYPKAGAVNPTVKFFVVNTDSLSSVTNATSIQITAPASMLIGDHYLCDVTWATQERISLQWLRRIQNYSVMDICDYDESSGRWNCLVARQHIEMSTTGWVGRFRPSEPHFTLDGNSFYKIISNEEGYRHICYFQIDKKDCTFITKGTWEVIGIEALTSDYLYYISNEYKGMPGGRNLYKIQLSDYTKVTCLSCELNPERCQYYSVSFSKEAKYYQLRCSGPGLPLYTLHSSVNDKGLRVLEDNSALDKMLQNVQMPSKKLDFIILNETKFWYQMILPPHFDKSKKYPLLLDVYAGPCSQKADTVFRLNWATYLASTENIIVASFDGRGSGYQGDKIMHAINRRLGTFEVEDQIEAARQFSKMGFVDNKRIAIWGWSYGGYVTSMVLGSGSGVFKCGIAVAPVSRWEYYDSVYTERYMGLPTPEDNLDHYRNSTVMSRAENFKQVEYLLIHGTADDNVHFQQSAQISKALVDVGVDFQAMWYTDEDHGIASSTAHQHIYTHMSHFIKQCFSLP

With `CCC(C)[C@H](N)C(=O)N1CSCCC1C#N` (stereo partly drawn), the half-life in data set [1] is over 2880 min. Besides, in data set [2], the affinity corresponds to a Ki of 6000 nM.

As to `CCC(C)[C@H](N)C(=O)N1COC[C@H]1C#N` (stereo partly drawn), the half-life in data set [1] was over 2880 min. Besides, the Ki in data set [2] came out at 450 nM.

As for `CCC(C)[C@H](N)C(=O)N1CCC[C@H]1C#N` (stereo partly drawn), the half-life in data set [1] was 2880 min.

Consider `N#C[C@@H]1CSCN1C(=O)C(CCCCN)NC(=O)OCc1ccccc1` (stereo partly drawn), for which the half-life in data set [1] is over 2880 min. For the same compound, the affinity in data set [2] corresponds to a Ki of 5 nM.

In turn, `N#C[C@@H]1CSCN1C(=O)C(N)C1CCCC1` (stereo partly drawn) showed a half-life in data set [1] of 300 min. In data set [2], this compound yielded an inhibition constant (Ki) of 0.5 nM.

Take `CC[C@H](C)[C@H](N)C(=O)N1C[S+]([O-])C[C@H]1C#N` (stereo in doubt; 7): in data set [1], the half-life was 75 min. The same compound registered an inhibition constant Ki in data set [2] of 34 nM.

For `CC[C@H](C)[C@H](N)C(=O)N1C[S+]([O-])C[C@H]1C#N` (stereo in doubt; 9), the T1/2 in data set [1] (buffer) is 1.5 h. The compound also gave an inhibition constant (Ki) in data set [2] of 440 nM.

For orientation: half-life means the time needed for the level to fall by half in the phase considered. Usually Ki stands for the dissociation constant of the complex between target and ligand, obtained from inhibition or displacement.
